Legend:
Assay in all cases: relative viability (nuclei count vs DMSO), 5 days (fraction); higher = more cells survive
ABC-1 = tested on: ABC-1
Outline: (§1)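 Relative viability divides the nuclei count in treated wells by that in vehicle wells. Lung cancer cell lines were seeded in 1536-well plates, dosed by pin tool the next day, and fixed and stained after 5 days in one step with final 0.05% Triton X-100, 1% formaldehyde and 1 ug/ml Hoechst. Dosing was a single drug or a fixed anchor-drug dose plus five library-drug doses (not always all listed) in √10 steps, and values are medians of duplicate plates imaged at 4×.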

COR-L23 = tested on: COR-L23
Outline: as §1

EPLC-272H = tested on: EPLC-272H
Outline: as §1

HARA = tested on: HARA
Outline: as §1

HCC-15 = tested on: HCC-15
Outline: as §1

HCC-78 = tested on: HCC-78
Outline: as §1

LC-2-ad = tested on: LC-2-ad
Outline: as §1

LU99A = tested on: LU99A
Outline: as §1

NCI-H1651 = tested on: NCI-H1651
Outline: as §1

NCI-H1915 = tested on: NCI-H1915
Outline: as §1

NCI-H1993 = tested on: NCI-H1993
Outline: as §1

NCI-H2009 = tested on: NCI-H2009
Outline: as §1

Structure (SMILES): COc1cc(N2CCC(C(N)=O)CC2)ccc1Nc1nc(N)c(Cl)c(Nc2ccccc2S(=O)(=O)C(C)C)n1 [HG-5-88-01] + O=C(CCCCCCC(=O)Nc1ccccc1)NO [Vorinostat] (partner 1 µM)
- relative viability (ABC-1; first compound 0.04 µM): 1.07
- relative viability (ABC-1; first compound 0.1265 µM): 1.48
- relative viability (ABC-1; first compound 0.4 µM): 1.04
- relative viability (ABC-1; first compound 1.265 µM): 1.04
- relative viability (ABC-1; first compound 4 µM): 0.715
- relative viability (COR-L23; first compound 0.04 µM): 0.496
- relative viability (COR-L23; first compound 0.1265 µM): 0.381
- relative viability (COR-L23; first compound 0.4 µM): 0.355
- relative viability (COR-L23; first compound 1.265 µM): 0.364
- relative viability (COR-L23; first compound 4 µM): 0.227
- relative viability (EPLC-272H; first compound 0.04 µM): 0.497
- relative viability (EPLC-272H; first compound 0.1265 µM): 0.606
- relative viability (EPLC-272H; first compound 0.4 µM): 0.6
- relative viability (EPLC-272H; first compound 1.265 µM): 0.503
- relative viability (EPLC-272H; first compound 4 µM): 0.116
- relative viability (HARA; first compound 0.04 µM): 0.532
- relative viability (HARA; first compound 0.1265 µM): 0.526
- relative viability (HARA; first compound 0.4 µM): 0.585
- relative viability (HARA; first compound 1.265 µM): 0.577
- relative viability (HARA; first compound 4 µM): 0.507
- relative viability (HCC-15; first compound 0.04 µM): 0.822
- relative viability (HCC-15; first compound 0.1265 µM): 0.916
- relative viability (HCC-15; first compound 0.4 µM): 0.761
- relative viability (HCC-15; first compound 1.265 µM): 0.833
- relative viability (HCC-15; first compound 4 µM): 0.786
- relative viability (HCC-78; first compound 0.04 µM): 0.467
- relative viability (HCC-78; first compound 0.1265 µM): 0.357
- relative viability (HCC-78; first compound 0.4 µM): 0.356
- relative viability (HCC-78; first compound 1.265 µM): 0.206
- relative viability (HCC-78; first compound 4 µM): 0.217
- relative viability (LC-2-ad; first compound 0.04 µM): 0.804
- relative viability (LC-2-ad; first compound 0.1265 µM): 0.75
- relative viability (LC-2-ad; first compound 0.4 µM): 0.745
- relative viability (LC-2-ad; first compound 1.265 µM): 0.674
- relative viability (LC-2-ad; first compound 4 µM): 0.579
- relative viability (LU99A; first compound 0.04 µM): 0.442
- relative viability (LU99A; first compound 0.1265 µM): 0.454
- relative viability (LU99A; first compound 0.4 µM): 0.522
- relative viability (LU99A; first compound 1.265 µM): 0.55
- relative viability (LU99A; first compound 4 µM): 0.436
- relative viability (NCI-H1651; first compound 0.04 µM): 0.509
- relative viability (NCI-H1651; first compound 0.1265 µM): 0.57
- relative viability (NCI-H1651; first compound 0.4 µM): 0.572
- relative viability (NCI-H1651; first compound 1.265 µM): 0.552
- relative viability (NCI-H1651; first compound 4 µM): 0.528
- relative viability (NCI-H1915; first compound 0.04 µM): 0.476
- relative viability (NCI-H1915; first compound 0.1265 µM): 0.525
- relative viability (NCI-H1915; first compound 0.4 µM): 0.525
- relative viability (NCI-H1915; first compound 1.265 µM): 0.57
- relative viability (NCI-H1915; first compound 4 µM): 0.386
- relative viability (NCI-H1993; first compound 0.04 µM): 0.669
- relative viability (NCI-H1993; first compound 0.1265 µM): 0.976
- relative viability (NCI-H1993; first compound 0.4 µM): 0.721
- relative viability (NCI-H1993; first compound 4 µM): 0.644
- relative viability (NCI-H2009; first compound 0.04 µM): 0.704
- relative viability (NCI-H2009; first compound 0.1265 µM): 0.796
- relative viability (NCI-H2009; first compound 0.4 µM): 0.694
- relative viability (NCI-H2009; first compound 1.265 µM): 0.616
- relative viability (NCI-H2009; first compound 4 µM): 0.647

Reference: the supplement of paper PMC10307832
